According to patent US9492471B2, “Methods of treating a disease or disorder associated with Bruton'S Tyrosine Kinase” (Celgene Avilomics Research, Inc., priority 2013, dated 2016):
Like-named read-outs stand apart in the source and are kept apart here.

Legend:
Assay in all cases: HotSpot kinase profiling
Format in all cases: biochemical
[1] = target: T1, BMX/ETK (Homo sapiens, UniProt P51813)
T1 construct: purchased Reaction Biology Corp
T1 sequence (P51813 1-675): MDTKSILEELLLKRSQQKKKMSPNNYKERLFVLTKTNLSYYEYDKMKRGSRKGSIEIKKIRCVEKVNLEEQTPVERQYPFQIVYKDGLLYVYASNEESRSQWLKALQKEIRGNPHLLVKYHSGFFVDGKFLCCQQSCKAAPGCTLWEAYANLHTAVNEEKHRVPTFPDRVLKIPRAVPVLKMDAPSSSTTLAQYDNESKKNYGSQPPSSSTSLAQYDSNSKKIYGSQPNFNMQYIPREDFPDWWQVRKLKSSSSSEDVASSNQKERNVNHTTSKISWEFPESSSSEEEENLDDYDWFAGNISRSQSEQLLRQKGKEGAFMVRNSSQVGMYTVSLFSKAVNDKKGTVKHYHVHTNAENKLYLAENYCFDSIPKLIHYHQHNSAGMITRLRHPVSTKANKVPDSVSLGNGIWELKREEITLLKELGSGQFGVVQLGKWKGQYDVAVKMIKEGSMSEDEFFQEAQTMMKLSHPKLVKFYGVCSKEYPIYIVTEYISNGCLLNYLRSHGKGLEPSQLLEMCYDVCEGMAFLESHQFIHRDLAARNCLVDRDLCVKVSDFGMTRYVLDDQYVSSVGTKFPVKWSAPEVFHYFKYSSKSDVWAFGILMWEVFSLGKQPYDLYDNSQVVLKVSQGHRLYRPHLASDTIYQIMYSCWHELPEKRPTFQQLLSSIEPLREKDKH
Summary of the method: (§1)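 P81 filtration radiometric readout; 2 h incubation at room temperature; 0.1% phosphoric acid wash; DMSO negative control; % inhibition, mean of replicate runs.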

[2] = target: T2, CAMK2a (Homo sapiens, UniProt Q9UQM7)
T2 construct: purchased Reaction Biology Corp
Summary of the method: as §1

[3] = target: T3, CDK5/p35 (Homo sapiens, UniProt Q00535)
T3 construct: purchased Reaction Biology Corp
Summary of the method: as §1

[4] = target: T4, CLK4 (Homo sapiens, UniProt Q9HAZ1)
T4 construct: purchased Reaction Biology Corp
Summary of the method: as §1

[5] = target: T5, MLK2/MAP3K10 (Homo sapiens, UniProt Q02779)
T5 construct: purchased Reaction Biology Corp
Summary of the method: as §1

[6] = target: T6, P70S6Kb/RPS6KB2 (Homo sapiens, UniProt Q9UBS0)
T6 construct: purchased Reaction Biology Corp
Summary of the method: as §1

[7] = target: T7, PDGFRa (Homo sapiens, UniProt P16234)
T7 construct: purchased Reaction Biology Corp
Summary of the method: as §1

[8] = target: T8, PKN2/PRK2 (Homo sapiens, UniProt Q16513)
T8 construct: purchased Reaction Biology Corp
Summary of the method: as §1

[9] = target: T9, RON/MST1R (Homo sapiens, UniProt Q04912)
T9 construct: purchased Reaction Biology Corp
Summary of the method: as §1

[10] = target: T10, SIK2 (Homo sapiens, UniProt Q9H0K1)
T10 construct: purchased Reaction Biology Corp
Summary of the method: as §1

[11] = target: T11, YES/YES1 (Homo sapiens, UniProt P07947)
T11 construct: purchased Reaction Biology Corp
Summary of the method: as §1

[12] = read-out: % Enzyme Activity (relative to DMSO controls) Run 1
[13] = read-out: % Enzyme Activity (relative to DMSO controls) Run 2

T9 sequence (Q04912 25-1400): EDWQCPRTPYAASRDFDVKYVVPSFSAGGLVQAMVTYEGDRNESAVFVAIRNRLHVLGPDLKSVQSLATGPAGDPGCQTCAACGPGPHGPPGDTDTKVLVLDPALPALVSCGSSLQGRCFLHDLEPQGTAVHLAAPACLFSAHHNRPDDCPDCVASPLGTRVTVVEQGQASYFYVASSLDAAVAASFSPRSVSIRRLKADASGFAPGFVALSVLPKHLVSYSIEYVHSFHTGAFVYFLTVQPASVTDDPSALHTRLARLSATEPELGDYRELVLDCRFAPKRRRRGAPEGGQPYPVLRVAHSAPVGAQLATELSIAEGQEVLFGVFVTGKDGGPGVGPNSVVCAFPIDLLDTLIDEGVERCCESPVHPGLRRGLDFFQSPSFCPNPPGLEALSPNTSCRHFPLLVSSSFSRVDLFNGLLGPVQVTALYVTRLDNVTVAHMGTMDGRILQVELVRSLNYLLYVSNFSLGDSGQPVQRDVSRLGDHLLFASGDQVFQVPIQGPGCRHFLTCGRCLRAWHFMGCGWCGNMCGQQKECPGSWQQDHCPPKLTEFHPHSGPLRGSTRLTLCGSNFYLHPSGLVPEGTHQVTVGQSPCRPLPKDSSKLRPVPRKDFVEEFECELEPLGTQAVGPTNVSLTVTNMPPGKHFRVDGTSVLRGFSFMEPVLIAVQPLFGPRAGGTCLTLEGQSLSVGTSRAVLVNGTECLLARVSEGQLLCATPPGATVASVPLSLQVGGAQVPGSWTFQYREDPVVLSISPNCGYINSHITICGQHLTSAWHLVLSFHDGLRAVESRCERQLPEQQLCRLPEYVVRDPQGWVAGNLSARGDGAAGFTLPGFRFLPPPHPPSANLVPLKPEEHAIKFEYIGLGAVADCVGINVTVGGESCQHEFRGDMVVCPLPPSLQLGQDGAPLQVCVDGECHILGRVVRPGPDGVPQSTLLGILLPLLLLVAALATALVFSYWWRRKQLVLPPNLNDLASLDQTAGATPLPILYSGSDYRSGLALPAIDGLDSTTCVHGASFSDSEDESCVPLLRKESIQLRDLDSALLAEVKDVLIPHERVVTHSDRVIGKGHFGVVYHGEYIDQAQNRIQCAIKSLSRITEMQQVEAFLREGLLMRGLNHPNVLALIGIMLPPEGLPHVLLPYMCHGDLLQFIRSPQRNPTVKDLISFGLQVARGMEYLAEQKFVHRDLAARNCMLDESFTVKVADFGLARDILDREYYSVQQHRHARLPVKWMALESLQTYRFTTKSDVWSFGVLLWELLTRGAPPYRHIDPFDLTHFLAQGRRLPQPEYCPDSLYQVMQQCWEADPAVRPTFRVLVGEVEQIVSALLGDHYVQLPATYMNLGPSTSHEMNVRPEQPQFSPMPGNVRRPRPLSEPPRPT
T11 sequence (P07947 whole entry): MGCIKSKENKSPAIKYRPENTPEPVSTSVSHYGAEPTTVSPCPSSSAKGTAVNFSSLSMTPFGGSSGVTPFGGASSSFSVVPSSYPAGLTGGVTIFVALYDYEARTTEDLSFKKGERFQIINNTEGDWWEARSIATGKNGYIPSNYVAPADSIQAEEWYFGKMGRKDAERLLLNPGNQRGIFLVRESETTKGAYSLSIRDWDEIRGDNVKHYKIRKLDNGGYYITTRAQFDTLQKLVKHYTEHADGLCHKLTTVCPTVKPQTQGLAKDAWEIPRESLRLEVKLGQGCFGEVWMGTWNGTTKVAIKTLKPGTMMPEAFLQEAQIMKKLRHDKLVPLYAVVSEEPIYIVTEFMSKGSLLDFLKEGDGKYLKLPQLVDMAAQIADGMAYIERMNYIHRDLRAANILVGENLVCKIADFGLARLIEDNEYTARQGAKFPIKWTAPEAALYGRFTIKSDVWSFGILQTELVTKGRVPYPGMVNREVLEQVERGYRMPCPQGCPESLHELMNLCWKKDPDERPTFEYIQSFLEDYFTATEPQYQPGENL
T6 sequence (Q9UBS0 whole entry): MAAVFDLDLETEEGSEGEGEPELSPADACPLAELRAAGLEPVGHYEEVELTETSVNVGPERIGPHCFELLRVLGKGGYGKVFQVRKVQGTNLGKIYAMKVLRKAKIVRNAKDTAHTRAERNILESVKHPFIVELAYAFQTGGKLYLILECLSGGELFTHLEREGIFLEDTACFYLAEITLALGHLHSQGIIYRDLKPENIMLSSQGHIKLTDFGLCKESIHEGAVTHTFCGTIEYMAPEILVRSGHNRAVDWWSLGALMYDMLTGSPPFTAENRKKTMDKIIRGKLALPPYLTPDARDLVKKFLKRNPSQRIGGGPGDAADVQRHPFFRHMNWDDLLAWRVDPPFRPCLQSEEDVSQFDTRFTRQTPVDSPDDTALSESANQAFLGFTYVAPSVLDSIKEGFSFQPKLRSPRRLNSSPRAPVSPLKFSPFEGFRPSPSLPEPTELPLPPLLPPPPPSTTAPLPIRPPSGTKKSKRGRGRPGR
T8 sequence (Q16513 whole entry): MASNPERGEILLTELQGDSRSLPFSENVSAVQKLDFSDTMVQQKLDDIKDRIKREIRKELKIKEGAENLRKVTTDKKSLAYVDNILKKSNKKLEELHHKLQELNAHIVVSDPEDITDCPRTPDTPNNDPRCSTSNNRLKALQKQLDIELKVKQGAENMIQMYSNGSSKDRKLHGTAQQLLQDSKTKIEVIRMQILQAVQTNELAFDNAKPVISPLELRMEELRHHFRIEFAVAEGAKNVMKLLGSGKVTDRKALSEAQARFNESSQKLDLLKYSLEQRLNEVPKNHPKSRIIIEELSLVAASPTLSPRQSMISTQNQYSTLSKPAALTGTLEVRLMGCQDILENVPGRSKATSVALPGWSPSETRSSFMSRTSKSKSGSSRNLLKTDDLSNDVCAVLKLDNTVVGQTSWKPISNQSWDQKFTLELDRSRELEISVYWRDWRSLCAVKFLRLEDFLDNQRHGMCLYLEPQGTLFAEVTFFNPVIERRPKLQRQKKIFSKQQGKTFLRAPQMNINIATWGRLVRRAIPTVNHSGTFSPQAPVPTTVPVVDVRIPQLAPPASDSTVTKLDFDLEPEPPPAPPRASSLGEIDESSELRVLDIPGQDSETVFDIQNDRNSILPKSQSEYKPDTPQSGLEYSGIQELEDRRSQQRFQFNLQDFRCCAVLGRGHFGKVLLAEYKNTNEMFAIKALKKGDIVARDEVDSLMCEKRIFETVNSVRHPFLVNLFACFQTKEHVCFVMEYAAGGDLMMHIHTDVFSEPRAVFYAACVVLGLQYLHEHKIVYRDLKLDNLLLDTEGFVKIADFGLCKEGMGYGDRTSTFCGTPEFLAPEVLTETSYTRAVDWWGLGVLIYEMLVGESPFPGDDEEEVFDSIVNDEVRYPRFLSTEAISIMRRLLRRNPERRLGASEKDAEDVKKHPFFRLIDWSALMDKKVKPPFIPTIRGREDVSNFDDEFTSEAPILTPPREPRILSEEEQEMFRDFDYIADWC
T7 sequence (P16234 24-1089): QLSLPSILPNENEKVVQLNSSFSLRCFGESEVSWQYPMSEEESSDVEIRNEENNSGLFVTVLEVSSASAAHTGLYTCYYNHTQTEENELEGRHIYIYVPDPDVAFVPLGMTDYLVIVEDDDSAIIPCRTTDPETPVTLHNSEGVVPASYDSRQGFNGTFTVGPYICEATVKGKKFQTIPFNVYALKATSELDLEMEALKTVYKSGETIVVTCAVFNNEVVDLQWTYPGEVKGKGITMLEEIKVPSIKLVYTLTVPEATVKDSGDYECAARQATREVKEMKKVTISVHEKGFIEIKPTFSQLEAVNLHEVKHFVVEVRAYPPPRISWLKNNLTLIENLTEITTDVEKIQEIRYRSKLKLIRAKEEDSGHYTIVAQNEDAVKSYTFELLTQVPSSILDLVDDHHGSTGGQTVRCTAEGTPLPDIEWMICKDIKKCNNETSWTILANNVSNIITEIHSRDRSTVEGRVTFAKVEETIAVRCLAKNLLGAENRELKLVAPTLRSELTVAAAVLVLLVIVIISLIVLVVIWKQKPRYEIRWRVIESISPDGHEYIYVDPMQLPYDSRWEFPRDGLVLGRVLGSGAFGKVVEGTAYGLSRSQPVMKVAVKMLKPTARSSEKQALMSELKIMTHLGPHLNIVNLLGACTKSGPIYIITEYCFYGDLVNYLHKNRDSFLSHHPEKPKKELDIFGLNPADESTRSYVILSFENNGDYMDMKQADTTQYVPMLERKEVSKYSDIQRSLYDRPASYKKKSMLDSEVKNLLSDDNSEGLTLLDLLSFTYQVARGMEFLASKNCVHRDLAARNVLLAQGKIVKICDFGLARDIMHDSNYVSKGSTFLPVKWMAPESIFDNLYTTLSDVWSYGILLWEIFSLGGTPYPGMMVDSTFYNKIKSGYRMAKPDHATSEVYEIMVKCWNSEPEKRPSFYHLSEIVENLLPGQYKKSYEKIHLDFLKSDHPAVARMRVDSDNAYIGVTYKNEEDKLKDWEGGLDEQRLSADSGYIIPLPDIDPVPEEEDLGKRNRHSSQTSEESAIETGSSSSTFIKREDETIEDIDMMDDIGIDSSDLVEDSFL
T2 sequence (Q9UQM7 whole entry): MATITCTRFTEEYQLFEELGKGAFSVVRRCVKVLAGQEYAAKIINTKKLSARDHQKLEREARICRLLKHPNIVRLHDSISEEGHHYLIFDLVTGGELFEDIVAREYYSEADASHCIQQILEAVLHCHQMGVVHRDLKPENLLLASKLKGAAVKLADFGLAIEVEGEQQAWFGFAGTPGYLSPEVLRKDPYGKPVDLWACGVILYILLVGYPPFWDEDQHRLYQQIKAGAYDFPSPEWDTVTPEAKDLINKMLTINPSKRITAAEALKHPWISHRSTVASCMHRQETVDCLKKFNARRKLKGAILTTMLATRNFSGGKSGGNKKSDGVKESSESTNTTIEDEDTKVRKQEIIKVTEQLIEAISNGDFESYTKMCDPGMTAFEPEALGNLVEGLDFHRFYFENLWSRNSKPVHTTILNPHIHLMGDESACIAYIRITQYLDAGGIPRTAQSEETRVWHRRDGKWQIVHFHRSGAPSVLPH

C=CC(=O)Nc1cccc(Nc2nc(Nc3ccc(OCCOC)c(F)c3)ncc2F)c1 [Compound 2] gave an inhibition at 3 µM [1] of 98.9%, a remaining activity at 3 µM [1, 12] of 0.93% and a remaining activity at 3 µM [1, 13] of 1.23%. The inhibition at 3 µM [2] was -9.6%, the remaining activity at 3 µM [2, 12] was 109% and the remaining activity at 3 µM [2, 13] was 110%. For the same molecule, the inhibition at 3 µM [3] was 4.49%, the remaining activity at 3 µM [3, 12] was 95% and the remaining activity at 3 µM [3, 13] was 96.1%. The inhibition at 3 µM [4] was 44.3%, the remaining activity at 3 µM [4, 12] was 57.4% and the remaining activity at 3 µM [4, 13] was 53.9%. The inhibition at 3 µM [5] was 54.6%, the remaining activity at 3 µM [5, 12] was 45.4% and the remaining activity at 3 µM [5, 13] was 45.3%. The inhibition at 3 µM [6] was 4.15%, the remaining activity at 3 µM [6, 12] was 95.6% and the remaining activity at 3 µM [6, 13] was 96.1%. It also gave an inhibition at 3 µM [7] of 36.6%, a remaining activity at 3 µM [7, 12] of 63.9% and a remaining activity at 3 µM [7, 13] of 62.8%. For the same molecule, the inhibition at 3 µM [8] was 7.64%, the remaining activity at 3 µM [8, 12] was 93.3% and the remaining activity at 3 µM [8, 13] was 91.4%. For the same molecule, the inhibition at 3 µM [9] was -2.24%, the remaining activity at 3 µM [9, 12] was 103% and the remaining activity at 3 µM [9, 13] was 101%. The inhibition at 3 µM [10] was 43.3%, the remaining activity at 3 µM [10, 12] was 56.3% and the remaining activity at 3 µM [10, 13] was 57.1%. It also gave an inhibition at 3 µM [11] of 81.5%, a remaining activity at 3 µM [11, 12] of 18.7% and a remaining activity at 3 µM [11, 13] of 18.3%.
